The subject of one experiment is ribosomal protein S6. Kind of experiment: General TORC1 activity measured by phosphorylation of ribosomal protein S6. The following applies: activated, undivided cells treated with dynein inhibitors. Format: cell-based, mouse. The text has this: Murine CD8^+ T Lymphocytes. […] Immunofluorescence Staining and Imaging.
Another experiment has as its system p-eIF4GI. Briefly: Imaging of polarization of p-eIF4GI in activated, undivided CD8+ T cells. The settings on record: Dynarrestin 25 μM, Ciliobrevin D 50 μM.
In another experiment the test system is cytosolic c-Myc. Briefly: Imaging of polarization of cytosolic c-Myc in activated, undivided CD8+ T cells. The settings on record: Dynarrestin 25 μM, Ciliobrevin D 50 μM.
A further experiment concerns TORC1. Kind of experiment: Imaging of polarization of TORC1 activity (phospho-mTOR) in activated, undivided CD8+ T cells. The following applies: Dynarrestin 25 μM, Ciliobrevin D 50 μM.
The test system of another experiment is Sirt1. Kind of experiment: Immunofluorescence imaging of Sirt1 distribution between dividing sister cells. The settings on record: silvestrol 200 nM or Hippuristanol 500 nM, last hour of activation.
Experiment [1] relates to c-Myc association with RPL26 and S6. Briefly: STORM analysis of c-Myc translating polysomes. Type of experiment: cell-based, mouse. The following applies: brief treatment, 91 μM. Here is the method: Murine CD8^+ T Lymphocytes. […] Stochastic Optical Reconstruction Microscopy (STORM). […] PFA was added to the culture at a final concentration of 4% (v/v), the cell suspension was transferred into […], and fixation continued for 10 minutes at RT. During all sample preparation, cells were pelleted for 3 minutes at 2000 rpm between each buffer. […] Reactive groups were quenched in 20 mM glycine, and non-specific antibody binding was blocked in TBS+2% BSA. […] Cells were washed with TBS and incubated with the following secondary antibodies for 1 hour at RT: CF488-labeled donkey anti-rat (1:1000, Biotium), CF568-labeled donkey anti-Goat (1:1000, Biotium), and AF647-labeled donkey anti-rabbit (1:1000, Jackson ImmunoResearch). Following two washes with TBS, cells were post-fixed in 1% (v/v) PFA for 5 minutes at RT, pelleted and resuspended in 20 μl cell culture matrix sold under […] drop of the cell suspension was placed into a cryomold, overlaid with Tissue Freezing Medium (Fisher Scientific Company) and snap frozen on dry ice. […] cryosections were placed on poly-L-lysine coated #1.5 18-mm coverslips (Electron Microscopy Sciences) and affixed to 35-mm dishes (Mattek) using epoxy resin. […] At least 25 cells from two independent experiments were analyzed. […]

In experiment [2] the test system is c-Myc bound to chromatin at c-Myc binding sites. Briefly: CUT&RUN ChIP-seq of c-Myc bound to chromatin in first-division CD8+ T cells. Format: cell-based, mouse. The following applies: brief treatment of activated CD8+ T cells; 200 nM, 2 hours; chromatin immunoprecipitation. The method, then:
CHIP-Sequencing. First-division CD8^+ T cells were sorted into medium with or without 200 nM silvestrol and cultured for additional 2 hours. CUT&RUN ChIP-seq experiments were performed as previously described (Meers et al. (2019) Elife 8) with slight modifications. […] Libraries were quantified using Qubit and size distribution was determined by Agilent 4200 TapeStation analysis before 15 million paired-end sequencing was performed.
Analysis for CHIP-seq Data. Paired-end sequencing reads were trimmed with Trim Galore (version 0.5.0) with default parameters. Reads were aligned to the reference mouse mm10 assembly using Bowtie 2 (version 2.3.5.1) (Langmead & Salzberg (2012) Nat. Methods 9:357-359) with settings—end-to-end—very-sensitive—nomixed—no-discordant-q—phred33-I 10-X 700. The resulting alignments, recorded in BAM file, were sorted, indexed, and marked for duplicates with Picard MarkDuplicate function (version 2.19.0, Broad Institute). […] C-Myc occupancy was normalized by scaling to 1 million mapped reads using BEDTools (version 2.27.1) (Quinlan & Hall (2010) Bioinformatics 26:841-842) and bedGraphToBigWig (version 377) (Kent et al. (2010) Bioinformatics 26:2204-2207) and visualized as heatmaps using deepTools plotHeatmap (version 3.2.1) (Ramirez et al. (2016) Nucl. Acids Res. 44:W160-165).

Another experiment deals with GFP-c-Myc. Format: cell-based, mouse. The settings on record: sorted first-division cells treated for 2 hours, 200 nM.
Experiment [3] concerns first-division c-Myc^high CD8+ T cells. Briefly: Adoptive transfer and in vivo influenza infection and challenge, donor cell frequency. Further details: species or system mouse. The settings on record: c-Myc^high cells treated 2 hours with 200 nM after sorting, transferred into recipients; A/X-31-OVA day 0, challenge day 30; spleen.
The subject of the next experiment is c-Myc. Kind of experiment: Immunofluorescence imaging of c-Myc distribution in first-division sister cells. The settings on record: treatment immediately prior to the first division (last hour of activation); silvestrol 200 nM, Hippuristanol 500 nM.

Procedure for Sirt1: Murine CD8^+ T Lymphocytes. For CD8^+ T cell stimulation, splenocytes obtained from wild-type animals were enriched for antigen presenting cells (APCs) using CD11c MicroBeads (Miltenyi Biotec) and pulsed with 5 nM of [sequence] peptide (SEQ ID NO:1; AnaSpec Inc.) for 1 hour at 37° C. CD8^+ T cells were isolated from lymph nodes using the Dynabeads Untouched Mouse CD8 Cells Kit (Invitrogen) and overlain onto the peptide-pulsed APCs. […] Whenever assessment of cell division was required, CD8^+ T cells were labeled with a fluorescent dye sold under the tradename CELLTRACE® Violet (CTV) Cell Proliferation Kit (Invitrogen) at 5 μM per 1×10^7 cells for 10 minutes at 37° C. For in vivo stimulation, CTV-labeled CD8^+ T cells were transferred by tail vein injection of wild-type recipients. Twenty-four hours after transfer, recipients were immunized by subcutaneous injection of 50 μg of [sequence] peptide (SEQ ID NO:1) into the neck region. Donor cells were obtained from axillary and brachial lymph nodes 8 hours after immunization. CD8^+ T cells were cultured in RPMI 1640 (Gibco) supplemented with 10% (v/v) heat-inactivated fetal bovine serum (FBS), lx MEM non-essential amino acids (Gibco), 1 mM Sodium pyruvate (Gibco), 2 mM L-glutamine (Gibco), 55 μM 2-mercaptoethanol (Gibco), 50 U/ml penicillin and 50 μg/ml streptomycin (Corning) at 37° C. in 5% CO2. […]
Procedure for cytosolic c-Myc: (§1) Murine CD8^+ T Lymphocytes. For CD8^+ T cell stimulation, splenocytes obtained from wild-type animals were enriched for antigen presenting cells (APCs) using CD11c MicroBeads (Miltenyi Biotec) and pulsed with 5 nM of [sequence] peptide (SEQ ID NO:1; AnaSpec Inc.) for 1 hour at 37° C. CD8^+ T cells were isolated from lymph nodes using the Dynabeads Untouched Mouse CD8 Cells Kit (Invitrogen) and overlain onto the peptide-pulsed APCs. Alternatively, CD8^+ T cells were stimulated on plate-bound anti-CD3ε (1 μg/ml, Bio X Cell), anti-CD28 (1 μg/ml, Bio X Cell), and recombinant human ICAM (0.5 μg/ml) produced in insect cells (Huppa et al. (2010) Nature 463:963-967); or by incubation with PMA (10 ng/ml, MedChemExpress) and Ionomycin (1 μM, MedChemExpress). Whenever assessment of cell division was required, CD8^+ T cells were labeled with a fluorescent dye sold under the tradename CELLTRACE® Violet (CTV) Cell Proliferation Kit (Invitrogen) at 5 μM per 1×10^7 cells for 10 minutes at 37° C. […]
(§2) The distribution of proteins in undivided cells was analyzed using Imaris 9.5 software (Oxford Instruments).
Procedure for p-eIF4GI: as §1, §2

On to `N#CC(=C(O)c1ccc(Cl)cc1Cl)c1nc2cc(Cl)ccc2c(=O)[nH]1` [Ciliobrevin D], for which the “TORC1 activity in general, phosphorylation of ribosomal protein S6” value in the experiment with ribosomal protein S6 was “remained unaffected”. Moreover, the “polarization of p-eIF4GI” value in the experiment on p-eIF4GI was “abrogated the polarization”. For the same compound, the “polarization of cytosolic c-Myc” value with cytosolic c-Myc is listed as “abrogated the polarization”. Moreover, in the experiment on TORC1, the “polarization of TORC1” value is listed as “abrogated the polarization”.
On to `CCOC(=O)c1sc(Nc2ccc(F)cc2F)nc1-c1ccc(N(CC)CC)cc1` [Dynarrestin], for which the “TORC1 activity in general, phosphorylation of ribosomal protein S6” value in the experiment on ribosomal protein S6 was “remained unaffected”. Moreover, the “polarization of p-eIF4GI” value in the experiment with p-eIF4GI was “abrogated the polarization”. In addition, the “polarization of cytosolic c-Myc” value in the experiment on cytosolic c-Myc is “abrogated the polarization”. Further, in the experiment with TORC1, the “polarization of TORC1” value is “abrogated the polarization”.
Regarding `C[C@H]1C[C@@]2(O[C@H]3C[C@H]4[C@@H]5CC[C@H]6C[C@H](O)CC[C@]6(C)[C@H]5[C@@H](O)C[C@]4(C)[C@H]3[C@@]2(C)O)OC1(C)C` [Hippuristanol], the “Sirt1 protein distribution between dividing sister cells” value in the experiment with Sirt1 is “unaffected”.
As for `COc1ccc(C[C@H](N)C(=O)N[C@H]2[C@@H](O)[C@H](n3cnc4c(N(C)C)ncnc43)O[C@@H]2CO)cc1` [puromycin], in experiment [1], the “association of c-Myc with RPL26 and S6” value is reported as “significantly reduced”.
With `COC(=O)[C@H]1[C@@H](O)[C@@]2(O)c3c(OC)cc(O[C@@H]4O[C@@H]([C@H](O)CO)CO[C@H]4OC)cc3O[C@@]2(c2ccc(OC)cc2)[C@@H]1c1ccccc1` [silvestrol], the “c-Myc bound to chromatin at c-Myc binding sites” value in experiment [2] is “greatly reduced”. Also, the “c-Myc levels in c-Myc^high cells (GFP-c-Myc MFI, FIG. 1)” value in the experiment on GFP-c-Myc is reported as “reduce c-Myc levels in c-Myc^high cells to those observed in c-Myc^low cells”. For the same compound, the “frequency of donor cells on day 9 after A/PR/8-OVA challenge (FIG. 2)” value in experiment [3] was “detected at numbers comparable to those found for sorted c-Myc^low cells”. For the same compound, the “Sirt1 protein distribution between dividing sister cells” value with Sirt1 is on record as “unaffected”. Moreover, the “c-Myc asymmetry in first-division sister cells” value with c-Myc was “rapid equilibration of c-Myc levels”.

The record behind these values is patent publication US20230313140A1, “METHOD FOR PREPARING T CELLS FOR ADOPTIVE T CELL THERAPY” (St. Jude Children's Research Hospital, Inc., priority 2022, published 2023).
